In PubChem BioAssay (NCI) one finds GI50 and TGI data, which are given here for 16 compounds.

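Growth conditions: 96-well plates. Treatment: test compound, 48 hours, 5 concentrations. Analysis: linear interpolation between bracketing concentrations; unreached endpoints set to highest concentration. Abbreviation: GI50, concentration required for 50% inhibition of growth. TGI: total growth inhibition.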 *1 amine or outer side, *2 acyl side, *3 side chain or, on linkers, in order; H or OH if unused. Where a SMILES comes first, the peptide text is derived from it. Bridges are numbered along the chain shown (N, C = ends). [ ]: non-standard residue; d: D form. The star is where a group is joined. X19 = O=C([C@H](N[*:1])c1ccc(O[C@H]2O[C@@H](CO)[C@@H](O)[C@@H](O)[C@H]2O[C@@H]2O[C@H](CO)[C@H](O)[C@H](O)[C@@H]2O)cc1)[*:2]; X18 = NC(=O)[C@@H](O[*:3])[C@H](N[*:1])C(=O)[*:2]; X20 = O=C([C@H](N[*:1])c1ccc(O)c(Cl)c1)[*:2]; d(aThr) = C[C@@H](O)[C@@H](N)C(=O)O; dHpg = N[C@@H](C(=O)O)c1ccc(O)cc1; X17 = CC(C)C/C=C/C=C/C(=O)*; dOrn = NCCC[C@@H](N)C(=O)O

Common to all, as to assay: NCI tumour cell line growth inhibition, 48 h
The subject of assay [1] is U251 CNS.
Assay [2] deals with SF-268 CNS.
For assay [3], the system named is HCC-2998 colon.
Assay [4] has as its system HOP-62 NSCLC.
In assay [5] the test system is SK-MEL-5 melanoma.
Assay [6] has as its system UACC-257 melanoma.
For assay [7], the system named is SK-OV-3 ovarian.
Assay [8] has as its system SNB-19 CNS.
Assay [9] has as its system M14 melanoma.
Assay [10] relates to SN12C renal.

Take `NCCCn1c2c(c3cc4c(cc3c1=O)OCO4)C(=O)c1ccccc1-2`: the GI50 in assay [1] was 0.321 µM; in [2], 3.75 µM; in [3], 0.237 µM; in assay [4], 0.187 µM; in assay [5], 0.215 µM; in assay [6], 1.38 µM. For the same compound, the GI50 was 10.5 µM in assay [7], 4.19 µM in assay [8], 0.43 µM in assay [9] and 0.975 µM in assay [10]. The TGI amounted to 0.753 µM in assay [1]; 16.5 µM in assay [2]; 0.718 µM in [3]; 0.729 µM in assay [4]; 0.656 µM in assay [5]; 4.7 µM in assay [6]. Also, the TGI in assay [7] was over 100 µM; in assay [8] it was over 100 µM; in [9] it was 1.1 µM; in assay [10], 2.49 µM.
Consider `O=C1NC(=O)C(=O)C(c2nc3ccccc3s2)C1=O`, for which the TGI in assay [1], in [2], in assay [3], in assay [4], in assay [5] and in assay [6] was over 100 µM in each case. Further, the TGI in assay [7], in assay [8], in assay [9] and in assay [10] was over 100 µM each time.
Take `Cc1ccc(NC(=O)CC/C(CC(=O)c2ccc(Cl)cc2)=N\NC(=O)C(=O)NN)cc1C`: the TGI in [1], in assay [2], in assay [3], in assay [4], in [5] and in assay [6] was over 100 µM in each case. Further, the TGI in assay [7], in [8], in assay [9] and in assay [10] was over 100 µM throughout.
As for `CCN(CC)C(=O)CNC(=O)OC(C)(C)C`, the TGI in assay [1], in assay [2], in [3], in assay [4], in [5] and in assay [6] was over 100 µM each time. Further, the TGI in assay [7], in assay [8], in assay [9] and in assay [10] was over 100 µM throughout.
Turning to `O=C1/C=C/[C@@H](O)[C@@H]2C[C@@H](O)C[C@H]2/C=C/CCC[C@H](CO)O1`, the GI50 in [1] is 3.3 µM; in assay [2] it was 1.33 µM; in [3] it was 2.61 µM; in assay [4], 3.66 µM; in assay [5], 0.705 µM; in assay [6], 1.68 µM. The GI50 was 4.62 µM in assay [7], 3.09 µM in [8], 2.42 µM in assay [9] and 4.24 µM in [10]. The TGI was over 100 µM in assay [1]; over 100 µM in assay [2]; over 100 µM in assay [3]; over 100 µM in [4]; 2.08 µM in assay [5]; over 100 µM in [6]. Also, the TGI in [7], in [8], in assay [9] and in [10] was over 100 µM each time.
Regarding `Oc1cccc(Cn2c(-c3cccc(O)c3O)nc3ccccc32)c1O`, the GI50 in [1] is 4.44 µM; in [2], 4.74 µM; in assay [3], 11 µM; in [4], 3.77 µM; in assay [5], 5.76 µM; in assay [6], 19.3 µM. The GI50 is 13.9 µM in [7], 13.8 µM in [8], 3.3 µM in [9] and 3.4 µM in [10]. Further, the TGI in assay [1] turned out to be 26.2 µM; in assay [2], 28.7 µM; in [3], 30 µM; in assay [4] it was 38.7 µM; in [5], 18.1 µM; in [6], 50.1 µM. Moreover, the TGI was 75.4 µM in assay [7], over 100 µM in assay [8], 15.5 µM in [9] and 16.3 µM in assay [10].
`NNC(=O)CCC(=O)Nc1ccc(Cl)cc1Cl`: the TGI in assay [1], in assay [2], in assay [3], in assay [4], in assay [5] and in [6] was over 100 µM each time. For the same compound, the TGI in assay [7], in assay [8], in [9] and in assay [10] was over 100 µM each time.
`CC(=O)NC1C(OCc2ccccc2)OC(COC(=O)CCCCCNc2ccc([N+](=O)[O-])c3[nH]c4ccc(O)cc4c(=O)c23)C(O)C1OC(C)C(=O)N[C@@H](C)C(=O)N[C@H](CCC(=O)OCc1ccccc1)C(N)=O` (stereo not given in full): the TGI in assay [1] was 7.04 µM; in [2], 9.41 µM; in assay [3], 10.9 µM; in assay [4], 22.7 µM; in [5] it was over 20 µM; in assay [6], 6.38 µM. The TGI in [7] was 10.7 µM; in [8], 19.6 µM; in [9], 3.15 µM; in [10], 18.7 µM.
For the compound `N#Cc1nn(C2OC(COC(=O)c3ccccc3)C(OC(=O)c3ccccc3)C2OC(=O)c2ccccc2)c2nc[nH]c(=O)c12` (stereo not given), the TGI in assay [1] is over 100 µM; in assay [2], over 100 µM; in [3] it was over 100 µM; in [4] it was over 100 µM; in [5], 65.6 µM; in [6], over 100 µM. Also, the TGI in assay [7], in [8], in assay [9] and in assay [10] was over 100 µM throughout.
Regarding `CCC1CCCCN1C(=S)N/N=C(\C)c1ccccn1` (stereo not given), the GI50 in assay [1] is under 0.0172 µM; in [2], 0.0766 µM; in [3], 0.156 µM; in assay [4], 0.0504 µM; in assay [5] it was 0.194 µM; in assay [6], under 0.0215 µM. The GI50 in [7] was 0.304 µM; in assay [8], 0.154 µM; in assay [9], 0.0358 µM; in assay [10] it was 0.114 µM. Further, the TGI in [1] is 6.16 µM; in assay [2], 5.62 µM; in [3], 2.76 µM; in assay [4] it was 1.96 µM; in [5], 1.59 µM; in [6], 1.68 µM. Also, the TGI is 2.46 µM in assay [7], 4.79 µM in assay [8], 1.96 µM in assay [9] and 3.87 µM in assay [10].
Consider `O=C1/C(=C/c2ccccc2)CN(CCC(=O)N2C/C(=C\c3ccccc3)C(=O)/C(=C/c3ccccc3)C2)C/C1=C\c1ccccc1`, for which the GI50 in assay [1] is 1.29 µM; in assay [2] it was 12.2 µM; in assay [3] it was 1.71 µM; in assay [4] it was 19.2 µM; in assay [5], 14.1 µM; in assay [6] it was 24.6 µM. Besides, the GI50 in [7] is 24.9 µM; in assay [8] it was 13.2 µM; in assay [9], 4.13 µM; in assay [10], 17.3 µM. For the same compound, the TGI in [1] is 11.3 µM; in [2], over 100 µM; in assay [3] it was 8 µM; in [4], 49.1 µM; in [5] it was 47.2 µM; in [6], over 100 µM. The TGI in [7] is over 75.2 µM; in assay [8], over 93.4 µM; in assay [9], over 77.9 µM; in assay [10], over 95.9 µM.
Turning to `CCC(c1ccc(OC)cc1)C(CC)c1ccc(O)c(CN2CCCC2)c1` (stereo not given), the GI50 in assay [1] was 2.25 µM; in assay [2] it was 5.6 µM; in assay [3] it was 2.29 µM; in assay [4], 3.46 µM; in assay [5] it was 1.74 µM; in [6], 2.1 µM. In addition, the GI50 in assay [7] is 3.68 µM; in assay [8], 4.39 µM; in assay [9], 2.15 µM; in assay [10], 5.61 µM. The TGI in assay [1] was 5.67 µM; in [2] it was 21.5 µM; in assay [3] it was 4.38 µM; in assay [4], 13.4 µM; in assay [5], 3.22 µM; in [6] it was 4.7 µM. Further, the TGI was 12.9 µM in assay [7], 17.2 µM in [8], 5.08 µM in assay [9] and 20.2 µM in [10].
In the case of `CCCCNC(=O)Oc1ccc2c(=O)c3sc4c(=O)c5ccccc5c(=O)c4c3c(=O)c2c1`, the GI50 in assay [1] was 1.02 µM; in [2] it was 1.1 µM; in [3] it was 0.511 µM; in [4] it was 0.144 µM; in [5], 0.103 µM; in [6] it was 0.237 µM. The GI50 was 1.4 µM in assay [7], 0.287 µM in assay [8], 0.0976 µM in assay [9] and 0.174 µM in assay [10]. Moreover, the TGI in [1] is 2.26 µM; in [2], 3.56 µM; in assay [3] it was 2.01 µM; in assay [4], 0.277 µM; in assay [5], 0.224 µM; in assay [6], 0.7 µM. The TGI is 2.8 µM in assay [7], 1.05 µM in assay [8], 0.225 µM in assay [9] and 0.35 µM in assay [10].
On to `CC(C)C/C=C/C=C/C(=O)N[C@@H](CC(N)=O)C(=O)N[C@@H]1C(=O)N[C@H](c2ccc(O)cc2)C(=O)N[C@H](CCCN)C(=O)N[C@H]([C@@H](C)O)C(=O)N[C@H](c2ccc(O)cc2)C(=O)N[C@H](c2ccc(O)cc2)C(=O)N[C@H]([C@H](C)O)C(=O)N[C@H](Cc2ccccc2)C(=O)N[C@H](CCCN)C(=O)N[C@H](c2ccc(O[C@H]3O[C@@H](CO)[C@@H](O)[C@@H](O)[C@H]3O[C@@H]3O[C@H](CO)[C@H](O)[C@H](O)[C@@H]3O)cc2)C(=O)N[C@H]([C@H](C)O)C(=O)N[C@H](c2ccc(O)cc2)C(=O)NCC(=O)N[C@H](CC(C)C)C(=O)N[C@H](C)C(=O)N[C@H](c2ccc(O)c(Cl)c2)C(=O)O[C@@H]1C(N)=O` (X17-N[X18][dHpg][dOrn][d(aThr)][dHpg][dHpg][dT][dF][dOrn][X19][dT][dHpg]G[dL][dA][X20]; ester 2-C), for which the GI50 in assay [1] was 24.1 µM; in [2], 34.2 µM; in assay [3], 57.2 µM; in assay [4], 29.9 µM; in assay [5] it was 22.1 µM; in assay [6], 21.9 µM. Also, the GI50 in assay [7] is 25.3 µM; in [8] it was 23.9 µM; in assay [9], 38.4 µM; in assay [10], over 100 µM. Also, the TGI is 55 µM in assay [1]; over 100 µM in assay [2]; over 100 µM in [3]; 78.2 µM in assay [4]; 44.6 µM in assay [5]; 47.4 µM in assay [6]. Besides, the TGI in [7] is 64.9 µM; in assay [8] it was 55.4 µM; in assay [9] it was over 100 µM; in assay [10], over 100 µM.
As to `NC1=NC(c2ccccc2)CC(c2cc(Cl)cc(Br)c2O)=N1` (stereo not given), the TGI in assay [1] worked out at 26.4 µM; in assay [2], 26.9 µM; in [3], 26.4 µM; in assay [4], 25.1 µM; in assay [5], 25 µM; in assay [6] it was 36.2 µM. Besides, the TGI stood at 42.7 µM in assay [7], 33.3 µM in assay [8], 28.7 µM in assay [9] and 30.3 µM in assay [10].
In the case of `COc1ccccc1N1CCN(C(=O)c2ccc(NS(=O)(=O)c3cccc4cccnc34)cc2)CC1`, the GI50 is 78.2 µM in assay [1]; over 48.3 µM in assay [2]; over 100 µM in [3]; over 49.7 µM in [4]; over 100 µM in assay [5]; over 100 µM in [6]. In addition, the GI50 in assay [7] is over 45.5 µM; in [8], 29.5 µM; in [9] it was over 100 µM; in assay [10] it was over 100 µM. Also, the TGI in assay [1], in assay [2], in assay [3], in [4], in [5] and in [6] was over 100 µM throughout. For the same compound, the TGI in assay [7] is over 83.3 µM; in assay [8], over 85.5 µM; in assay [9] it was over 100 µM; in [10], over 100 µM.
